{"source": "PubChem BioAssay (NCI)", "test_in_all_cases": "NCI tumour cell line growth inhibition, 48 h", "key": {"DLD-1 colon": {"test_system": "DLD-1 colon"}, "XF 498 CNS": {"test_system": "XF 498 CNS"}, "HOP-18 NSCLC": {"test_system": "HOP-18 NSCLC"}, "SNB-78 CNS": {"test_system": "SNB-78 CNS"}, "RXF-631 renal": {"test_system": "RXF-631 renal"}}, "note": "Values joined by “and” are separate entries in the source; they are usually repeats but may differ in a detail not shown here. Equal entries are not always repeated.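 Grown in 96-well plates, cells were treated for 48 hours with each compound at five concentrations. Insufficient inhibition: endpoint recorded as highest concentration tested. GI50 = concentration required for 50% inhibition of growth. TGI: total growth inhibition.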", "data": [{"smiles": "O=C1OC2(OC2c2ccccc2)c2ccccc21", "note": "(stereo unspecified)", "values": [{"measurement": "TGI", "setting": "DLD-1 colon", "value": "> 100", "unit": "µM"}, {"measurement": "TGI", "setting": "XF 498 CNS", "value": "> 100", "unit": "µM"}]}, {"smiles": "CC(=O)C1=C(C)NC2C=CC=CN12", "note": "(stereo unspecified)", "values": [{"measurement": "TGI", "setting": "HOP-18 NSCLC", "value": "> 100", "unit": "µM"}, {"measurement": "TGI", "setting": "SNB-78 CNS", "value": "> 100", "unit": "µM"}, {"measurement": "TGI", "setting": "DLD-1 colon", "value": "> 100", "unit": "µM"}, {"measurement": "TGI", "setting": "XF 498 CNS", "value": "> 100", "unit": "µM"}]}, {"smiles": "COc1cc(CNc2ccc(SC)cc2)cc(OC)c1OC", "values": [{"measurement": "TGI", "setting": "HOP-18 NSCLC", "value": "> 100", "unit": "µM"}, {"measurement": "TGI", "setting": "SNB-78 CNS", "value": "> 100", "unit": "µM"}, {"measurement": "GI50", "setting": "DLD-1 colon", "value": "12 µM and 5.85 µM"}, {"measurement": "TGI", "setting": "DLD-1 colon", "value": "> 100", "unit": "µM"}, {"measurement": "GI50", "setting": "XF 498 CNS", "value": "23.4 µM and 11.1 µM"}, {"measurement": "TGI", "setting": "XF 498 CNS", "value": "91.2 µM and 40 µM"}]}, {"smiles": "CCCC(C)NC1=C(NC(C)=O)C(=O)c2ccccc2C1=O", "note": "(stereo unspecified)", "values": [{"measurement": "TGI", "setting": "SNB-78 CNS", "value": "> 100", "unit": "µM"}, {"measurement": "TGI", "setting": "DLD-1 colon", "value": "> 100", "unit": "µM"}, {"measurement": "TGI", "setting": "XF 498 CNS", "value": "> 100", "unit": "µM"}]}, {"smiles": "O=C(CSc1nnc(Cc2ccccc2)o1)Nc1ccc([N+](=O)[O-])cc1", "values": [{"measurement": "TGI", "setting": "SNB-78 CNS", "value": "> 100", "unit": "µM"}, {"measurement": "TGI", "setting": "DLD-1 colon", "value": "> 100", "unit": "µM"}]}, {"smiles": "COC(=O)N/N=C(\\C)C(CN1CCCCC1)C(C1=C(O)c2ccccc2OC1)c1ccccc1", "note": "(stereo unspecified)", "values": [{"measurement": "TGI", "setting": "HOP-18 NSCLC", "value": "> 100", "unit": "µM"}, {"measurement": "TGI", "setting": "SNB-78 CNS", "value": "> 100", "unit": "µM"}, {"measurement": "TGI", "setting": "DLD-1 colon", "value": "> 100", "unit": "µM"}, {"measurement": "TGI", "setting": "XF 498 CNS", "value": "> 100", "unit": "µM"}]}, {"smiles": "O=C1c2ccccc2CCCCCCCCCCC12OCCCO2", "values": [{"measurement": "TGI", "setting": "HOP-18 NSCLC", "value": "> 100", "unit": "µM"}, {"measurement": "TGI", "setting": "SNB-78 CNS", "value": "> 100", "unit": "µM"}, {"measurement": "TGI", "setting": "DLD-1 colon", "value": "> 100", "unit": "µM"}]}, {"smiles": "O=C1c2ccccc2C(=O)N1Cc1ccccc1-c1c2nc(c(-c3ccccc3CN3C(=O)c4ccccc4C3=O)c3ccc([nH]3)c(-c3ccccc3CN3C(=O)c4ccccc4C3=O)c3nc(c(-c4ccccc4CN4C(=O)c5ccccc5C4=O)c4ccc1[nH]4)C=C3)C=C2", "values": [{"measurement": "TGI", "setting": "HOP-18 NSCLC", "value": "> 100", "unit": "µM"}, {"measurement": "TGI", "setting": "SNB-78 CNS", "value": "> 100", "unit": "µM"}, {"measurement": "TGI", "setting": "DLD-1 colon", "value": "> 100", "unit": "µM"}]}, {"smiles": "Oc1cc(C2OCCCO2)cc(O)c1O", "values": [{"measurement": "TGI", "setting": "RXF-631 renal", "value": "> 100", "unit": "µM"}, {"measurement": "TGI", "setting": "HOP-18 NSCLC", "value": "> 100", "unit": "µM"}, {"measurement": "TGI", "setting": "SNB-78 CNS", "value": "> 100", "unit": "µM"}, {"measurement": "TGI", "setting": "DLD-1 colon", "value": "> 100", "unit": "µM"}]}, {"smiles": "CC(=O)OC1CC2C(C)(C)OC(=O)CC(OC(C)=O)[C@]2(C)C2CCC3(C)C(=CCC3[C@H]3COC(=O)C3)[C@]12C", "note": "(stereo partly specified)", "values": [{"measurement": "TGI", "setting": "SNB-78 CNS", "value": "> 100", "unit": "µM"}, {"measurement": "TGI", "setting": "DLD-1 colon", "value": "> 100", "unit": "µM"}, {"measurement": "TGI", "setting": "XF 498 CNS", "value": "> 100", "unit": "µM"}]}, {"smiles": "O=C1Nc2c(ccc(Cl)c2I)C1=O", "values": [{"measurement": "TGI", "setting": "DLD-1 colon", "value": 35.3, "unit": "µM"}, {"measurement": "TGI", "setting": "XF 498 CNS", "value": 29.9, "unit": "µM"}]}, {"smiles": "O=C(Cc1ccccc1)NN1C(=O)C(Cl)C1c1ccc(O)cc1", "note": "(stereo unspecified)", "values": [{"measurement": "TGI", "setting": "HOP-18 NSCLC", "value": "> 100", "unit": "µM"}, {"measurement": "TGI", "setting": "DLD-1 colon", "value": "> 100", "unit": "µM"}]}, {"smiles": "CC(C)C(=O)/C=C/c1ccc(Br)cc1", "values": [{"measurement": "TGI", "setting": "SNB-78 CNS", "value": "> 100", "unit": "µM"}, {"measurement": "TGI", "setting": "DLD-1 colon", "value": 20.3, "unit": "µM"}, {"measurement": "TGI", "setting": "XF 498 CNS", "value": 30.4, "unit": "µM"}]}, {"smiles": "CCCCCCCCCCCCCCCCCC(=O)O[C@H](COC(=O)CCCCCCCCCCC)COC(=O)CCCCCCCCCCCCCCC", "values": [{"measurement": "TGI", "setting": "RXF-631 renal", "value": "> 100", "unit": "µM"}, {"measurement": "TGI", "setting": "HOP-18 NSCLC", "value": "> 100", "unit": "µM"}, {"measurement": "TGI", "setting": "DLD-1 colon", "value": "> 100", "unit": "µM"}]}, {"smiles": "CC(=O)Nc1cc2c(s1)CCC1CC(=O)NN=C21", "note": "(stereo unspecified)", "values": [{"measurement": "TGI", "setting": "SNB-78 CNS", "value": "> 100", "unit": "µM"}, {"measurement": "TGI", "setting": "XF 498 CNS", "value": "> 100", "unit": "µM"}]}]}
